The results in this text go back to ChEMBL document CHEMBL4219172, “Synthesis and biological evaluation of pyrimidine derivatives as novel human Pin1 inhibitors” (Bioorg Med Chem, 2018).

A value given as a limit tells only on which side of the number the result lay.

In one assay the target is T1, Peptidyl-prolyl cis-trans isomerase NIMA-interacting 1 (Homo sapiens, UniProt Q13526). The assay is described as follows: Inhibition of human N-terminal His6-tagged Pin1 PPIase activity expressed in Escherichia coli BL21 using Suc-Ala-Glu-cis-Pro-Phe-4-nitroanilide as substrate preincubated for 10 mins followed by substrate addition monitored for 90 secs by protease enzyme coupled based spectrophotometric analysis.
T1 sequence (Q13526 whole entry): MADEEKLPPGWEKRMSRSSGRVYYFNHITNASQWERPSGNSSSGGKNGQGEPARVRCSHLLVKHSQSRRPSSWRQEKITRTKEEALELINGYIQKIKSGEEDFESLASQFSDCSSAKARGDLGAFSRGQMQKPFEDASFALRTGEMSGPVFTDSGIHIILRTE
Conditions: not given
For `O=[N+]([O-])c1ccc(Cl)nc1Oc1cccc2ocnc12`, the concentration for half-maximal inhibition (IC50) (commonly the concentration that inhibits the measured activity by half) was over 100 µM. In turn, `O=[N+]([O-])c1cnc(Cl)nc1NC1CCCCC1` came in with an IC50 of over 100 µM. The compound `O=[N+]([O-])c1cnc(Cl)nc1NC1CCCC1` gave an IC50 of over 100 µM. As for `O=[N+]([O-])c1cnc(Cl)nc1Oc1ccccn1`, half-maximal inhibition (IC50) required 3.48 µM.

`O=[N+]([O-])c1cnc(-c2ccc3ccccc3c2)nc1Oc1cccc2ocnc12` returned an IC50 of over 100 µM. The compound `O=[N+]([O-])c1cnc(CCc2ccccc2)nc1Cl` yielded an IC50 of 13.9 µM. `O=[N+]([O-])c1cnc(Cl)nc1OCc1ccccc1` returned a 50% inhibitory concentration (IC50) of 8.33 µM.

`O=C1CCC(=O)N1c1cnc(Cl)nc1Nc1ccccc1` came in with an IC50 of over 100 µM.

`O=[N+]([O-])c1cnc(Cl)nc1Oc1ccc(-c2ccccc2)cc1` registered an IC50 of 34 µM.

Compound `Cn1nc(-c2ccccc2)cc1Oc1nc(Cl)ncc1[N+](=O)[O-]` showed an IC50 of 2.17 µM. `COc1ccccc1Oc1nc(Cl)ncc1[N+](=O)[O-]` registered a concentration for half-maximal inhibition (IC50) of 4.03 µM. On the same count and under the same terms, next, `N#Cc1ccccc1Oc1nc(Cl)ncc1[N+](=O)[O-]`: 9.05 µM; `Clc1ncc(-c2nnco2)c(Nc2ccccc2)n1`: over 100 µM. In turn, `Nc1ccccc1Oc1nc(Cl)ncc1[N+](=O)[O-]` yielded an IC50 of 33.5 µM. Take `COc1cccc(Oc2nc(Cl)ncc2[N+](=O)[O-])c1`: 5.04 µM corresponded to half-maximal inhibition (IC50). `O=[N+]([O-])c1cnc(Cl)nc1Oc1ccc2ccccc2c1`: the IC50 worked out at 16.6 µM. Turning to `Cc1cnc(Cl)nc1Oc1cccc2ocnc12`, the IC50 is over 100 µM. `O=[N+]([O-])c1cnc(Cl)nc1Oc1ccccc1F` had an IC50 of 2.52 µM. `O=[N+]([O-])c1cncnc1Oc1cccc2ocnc12` came in with a half-inhibitory concentration (IC50) of over 100 µM.

`O=[N+]([O-])c1cnc(Cl)nc1Oc1cccc2ccccc12` displayed an IC50 of 22.6 µM.

For the compound `O=C1C=CC(=O)N1c1cnc(Cl)nc1Nc1ccccc1`, it took 20.2 µM to reach half-maximal inhibition (IC50). With `CS(=O)(=O)Nc1ccccc1Oc1nc(Cl)ncc1[N+](=O)[O-]`, the IC50 is 5.2 µM.

Turning to `Clc1ncc(Cl)c(Oc2ccccc2)n1`, the IC50 was over 100 µM.

For `O=[N+]([O-])c1cnc(Cl)nc1OC1CCCCC1`, the IC50 is over 100 µM. In turn, `N#Cc1cnc(Cl)nc1Oc1ccccc1` showed an IC50 of 4.36 µM. This lies in the single-digit micromolar range.

`O=[N+]([O-])c1cnc(OCCc2ccccc2)nc1Cl` displayed an IC50 of 7.27 µM. In turn, `O=[N+]([O-])c1cnc(Cl)nc1Oc1cccc2ocnc12` displayed an IC50 of 1.68 µM. `O=[N+]([O-])c1cnc(Cl)nc1Nc1ccccc1` displayed an IC50 of 6.66 µM. Turning to `COC(=O)c1cnc(Cl)nc1Oc1cccc2ocnc12`, the IC50 is over 100 µM. Same read-out and setting: under `O=[N+]([O-])c1cnc(OCc2ccccc2)nc1Cl` stands 7.28 µM; under `O=C(O)c1cnc(Cl)nc1Oc1cccc2ocnc12`, 18.9 µM. `O=[N+]([O-])c1cnc(Cl)cc1Oc1cccc2ocnc12` gave a concentration for half-maximal inhibition (IC50) of over 100 µM. Consider `FC(F)(F)c1cnc(Cl)nc1Oc1cccc2ocnc12`, for which the IC50 is over 100 µM. As for `O=[N+]([O-])c1cnc(-c2ccccc2)nc1Oc1cccc2ocnc12`, the IC50 is over 100 µM. Take `CNc1nc(Cl)ncc1[N+](=O)[O-]`: the IC50 was over 100 µM.

For `O=C1C=CC(=O)c2c(O)cccc21` [JUGLONE], the IC50 is 5.9 µM. In turn, `O=[N+]([O-])c1cnc(Cl)nc1OCCc1ccccc1` showed an IC50 of 4.08 µM.

The compound `O=[N+]([O-])c1cnc(Cl)nc1Oc1ccccc1` displayed an IC50 of 2.24 µM.

In turn, `Clc1ncc(-c2ncco2)c(Nc2ccccc2)n1` had an IC50 of 9.87 µM. `FC(F)(F)c1cnc(Cl)nc1Oc1ccccc1` had an IC50 of over 100 µM.

As for `O=[N+]([O-])c1cnc(Cl)nc1NCCc1ccccc1`, the IC50 was over 100 µM. `O=[N+]([O-])c1cnc(Cl)nc1OC1CCCC1` yielded an IC50 of over 100 µM.

`Cc1cnc(Cl)nc1Oc1ccccc1` yielded an IC50 of over 100 µM.

For `CC1=C(/C=C/C(C)=C/C=C/C(C)=C/C(=O)O)C(C)(C)CCC1` [TRETINOIN], half-maximal inhibition (IC50) required 0.82 µM. In other words, the sub-micromolar range.

For a further assay, the target named is T1, Peptidyl-prolyl cis-trans isomerase NIMA-interacting 1. Description: Inhibition of human N-terminal His6-tagged Pin1 PPIase activity expressed in Escherichia coli BL21 using Suc-Ala-Glu-cis-Pro-Phe-4-nitroanilide as substrate by beckman coulter-paradigm assay. The settings on record: TDE = time-dependent effect.
Regarding `O=[N+]([O-])c1cnc(Cl)nc1OCc1ccccc1`, the inhibition result was “Tde”. Turning to `O=[N+]([O-])c1cnc(Cl)nc1Oc1cccc2ocnc12`, the inhibition entry was “Tde”.

For `O=[N+]([O-])c1cnc(OCc2ccccc2)nc1Cl`, the inhibition entry was “Tde”.

In the case of `O=[N+]([O-])c1cnc(Cl)nc1Oc1ccccc1`, the inhibition result is “Tde”.
